The target in test [1] is T1, Ubiquitin-conjugating enzyme E2 G2 (Homo sapiens) (UniProt P60604).
T1 sequence (whole entry): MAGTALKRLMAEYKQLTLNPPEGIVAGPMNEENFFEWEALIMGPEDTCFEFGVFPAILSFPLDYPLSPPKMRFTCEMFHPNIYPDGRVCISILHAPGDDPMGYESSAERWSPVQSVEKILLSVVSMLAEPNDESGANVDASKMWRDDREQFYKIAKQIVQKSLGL
The experiment in a line: Binding affinity to recombinant TEV cleavage site-fused-His6-tagged Ube2g2 (unknown origin) expressed in Escherichia coli Rosetta2 (DE3) assessed as compound-protein complex formation at 5 uL measured after overnight incubation at pH 7.4 by LC/MS analysis.

In test [2] the target is T1, Ubiquitin-conjugating enzyme E2 G2 (Homo sapiens). As to the kind of experiment: Binding affinity to recombinant TEV cleavage site-fused-His6-tagged Ube2g2 (unknown origin) expressed in Escherichia coli Rosetta2 (DE3) assessed as molecular weight of compound-protein conjugate at 5 uL measured after overnight incubation at pH 8.5 by LC/MS analysis (reference value: 18491 Da).

The target is the same in test [3]. The experiment in a line: Binding affinity to recombinant TEV cleavage site-fused-His6-tagged Ube2g2 (unknown origin) expressed in Escherichia coli Rosetta2 (DE3) assessed as modification of Cys48 residue by measuring molecular weight of compound-protein conjugate at 5 uL measured after overnight incubation at pH 8.5 by LC/MS analysis (reference value: 18491 Da).

For test [4] the target is unchanged. The experiment in a line: Binding affinity to recombinant TEV cleavage site-fused-His6-tagged Ube2g2 (unknown origin) expressed in Escherichia coli Rosetta2 (DE3) assessed as modification of Cys75 residue by measuring molecular weight of compound-protein conjugate at 5 uL measured after overnight incubation at pH 8.5 by LC/MS analysis (reference value: 18491 Da).

For test [5] the target is unchanged. The experiment in a line: Binding affinity to recombinant TEV cleavage site-fused-His6-tagged Ube2g2 (unknown origin) expressed in Escherichia coli Rosetta2 (DE3) assessed as modification of Cys89 residue by measuring molecular weight of compound-protein conjugate at 5 uL measured after overnight incubation at pH 8.5 by LC/MS analysis (reference value: 18491 Da).

The source made the active and inactive calls. The rule behind the calls is not given here.

In the case of `C=CCC(=O)N[C@H](CO)Cc1ccc(-c2cc(Cl)cc(Cl)c2)cc1`, the outcome in test [1] and in test [2] was inactive.

Consider `C=CCC(=O)N[C@@H](/C=C/C(=O)O)Cc1ccc(-c2cc(Cl)cc(Cl)c2)cc1`, for which the outcome in test [1] and in test [2] was inactive.

Regarding `C=CCC(=O)N[C@H](Cc1ccc(-c2cc(Cl)cc(Cl)c2)cc1)[C@@H](O)[C@H](O)C(=O)OCC`, the outcome in test [1] and in test [2] was inactive.

Consider `C=CCC(=O)N[C@@H](/C=C/C(=O)OCC)Cc1ccc(-c2cc(Cl)cc(Cl)c2)cc1`, for which the result in test [1] and in test [2] was inactive.

With `C=CC(=O)N[C@H](CO)Cc1ccc(-c2cc(Cl)cc(Cl)c2)cc1`, in test [1], the outcome was inactive. In addition, the Activity in test [3] came to 18800 Da; in test [4], 19200 Da; in test [5] it was 19500 Da.

With `C=CCC(=O)N[C@@H](CO)Cc1ccc(-c2cc(Cl)cc(Cl)c2)cc1`, the result in test [1] and in test [2] was inactive.

With `C=CCC(=O)N[C@@H](Cc1ccc(-c2cc(Cl)cc(Cl)c2)cc1)[C@H](O)[C@@H](O)C(=O)OCC`, the outcome in test [1] and in test [2] was inactive.

Take `C=CC(=O)N[C@H](Cc1ccc(-c2cc(Cl)cc(Cl)c2)cc1)[C@@H](O)[C@H](O)C(=O)OCC`: the outcome in test [1] was inactive. In addition, in test [2], the Activity came to 18900 Da.

With `C=CCC(=O)N[C@H](Cc1ccc(-c2cc(Cl)cc(Cl)c2)cc1)[C@@H](O)[C@H](O)C(=O)O`, the outcome in test [1] and in test [2] was inactive.

On to `C=CC(=O)N[C@@H](CO)Cc1ccc(-c2cc(Cl)cc(Cl)c2)cc1`, for which the result in test [1] was inactive. Moreover, the Activity in test [2] fell in the range of 18800 to 19200 Da.

`C=CC(=O)N[C@H](/C=C/C(=O)OCC)Cc1ccc(-c2cc(Cl)cc(Cl)c2)cc1`: the result in test [1] was inactive. The Activity in test [2] was 18900 Da.

As for `C=CC(=O)N[C@@H](Cc1ccc(-c2cc(Cl)cc(Cl)c2)cc1)[C@H](O)[C@@H](O)C(=O)OCC`, the result in test [1] was inactive. The Activity in test [2] amounted to 18900 Da.

For `CCOC(=O)/C=C/[C@H](Cc1ccc(-c2cc(Cl)cc(Cl)c2)cc1)NC(=O)OC(C)(C)C`, the result in test [1] was inactive. For the same compound, in test [2], the Activity was found to be 18900 Da.

Take `C=CC(=O)N[C@@H](Cc1ccc(-c2cc(Cl)cc(Cl)c2)cc1)[C@H](O)[C@@H](O)C(=O)O`: the result in test [1] and in test [2] was inactive.

With `C=CCC(=O)N[C@H](/C=C/C(=O)OCC)Cc1ccc(-c2cc(Cl)cc(Cl)c2)cc1`, the outcome in test [1] and in test [2] was inactive.

Regarding `C=CC(=O)N[C@@H](/C=C/C(=O)O)Cc1ccc(-c2cc(Cl)cc(Cl)c2)cc1`, the result in test [1] was inactive. For the same compound, in test [2], the Activity amounted to 18900 Da.

With `C=CC(=O)N[C@H](Cc1ccc(-c2cc(Cl)cc(Cl)c2)cc1)[C@@H](O)[C@H](O)C(=O)O`, the outcome in test [1] was inactive. For the same compound, the Activity in test [2] is 18900 to 19300 Da.

As to `C=CCC(=O)N[C@@H](Cc1ccc(-c2cc(Cl)cc(Cl)c2)cc1)[C@H](O)[C@@H](O)C(=O)O`, the result in test [1] and in test [2] was inactive.

For `C=CC(=O)N[C@@H](/C=C/C(=O)OCC)Cc1ccc(-c2cc(Cl)cc(Cl)c2)cc1`, the outcome in test [1] was inactive. Further, the Activity in test [2] turned out to be 18900 Da.

As for `CC(C)(C)OC(=O)N[C@H](C=O)Cc1ccc(-c2cc(Cl)cc(Cl)c2)cc1`, the outcome in test [1] was inactive. Besides, the Activity in test [2] fell in the range of 18900 to 19300 Da.

For the origin of these results see ChEMBL document CHEMBL4368862, “Design, synthesis, and anticancer activity evaluation of irreversible allosteric inhibitors of the ubiquitin-conjugating enzyme Ube2g2” (Medchemcomm, 2018).
